“Also recorded” adds a separate entry of the source.

Holding throughout (type): cell-based, human
One series relates to LNCaP cells. Briefly: Flow cytometry of propidium iodide stained cells, sub-G0 peak (cell death). As to conditions: for dead cells (sub-G0 peak): LNCaP in androgen-free medium 5 days, then siRNA transfection a further 48 hrs. The procedure:
FIG. 18. Selective killing of LNCaP cells grown in androgen-free medium by PCDH-PC siRNA. LNCaP cells grown in normal medium or in androgen-free medium (phenol red-free RPMI supplemented with CS-FBS) for 5 days were transfected with PCDH-PC siRNA (#181) or with lamin siRNA, as indicated for a further 48 hrs. Cells were collected, fixed and stained with propidium iodide and were analyzed by flow cytometry. Bars represent the % population of cells in the sub-G0 peak considered to be apoptotic. The bars are averages based on two measurements under each condition. No siRNAs were untransfected cells.
siRNAs and Transfection of Cultured Human Prostate Cancer Cells. Commercial siRNAs targeting human β-catenin and lamin A were purchased from Dharmacon, Inc. (Chicago, Ill.). Three different siRNAs targeting PCDH-PC were designed using the siRNA Target Finder software program available through Ambion, Inc. (Austin, Tex.). The anti-PCDH-PC siRNAs targeted sequences at position 3043-3062 (#181; SEQ ID NO:4; FIG. 29), 3098-3117 (#190; SEQ ID NO:6; FIG. 31) or 3345-3364 (#208; SEQ ID NO:7; FIG. 32) on the PCDH-PC mRNA. The 21 bp siRNAs were constructed using the 19 bp core sequences described above with 2 nucleotide UU overhangs and these siRNAs were produced and provided by Ambion, Inc. siRNAs were transfected or co-transfected (with other expression vectors as described) into LNCaP cells at 100 nM final concentrations using Lipofectamine 2000 transfection reagent (Invitrogen Life Technologies, Inc.) in serum-free medium as instructed by the manufacturer. 48 hrs after transfection, cells were harvested and extracted for protein or RNA as described below.
A general note: Flow cytometry measures light scatter and fluorescence of single cells or particles in a stream.

Series [1] deals with Tcf-sensitive reporter pTOP (wnt signaling). Briefly: Tcf-sensitive pTOP luciferase reporter assay (wnt signaling) in LNCaP cells. Conditions: 7 days in androgen-free medium. From the text: FIGS. 5A-5C. siRNAs against PCDH-PC suppress PCDH-PC expression, TCF-mediated transcription and NE transdifferentiation in LNCaP cells grown in androgen-free medium. FIG. 5A. RNAs extracted from LNCaP cells grown in normal medium (Control) or in androgen-free medium (CS-FBS, None) were compared toRNAs from LNCaP cells grown in androgen-free medium transfected with siRNAs against PCDH-PC (181, 190 and 208) or siRNA against lamin by RT-PCR using primers specific for PCDH-PC (Top Panel) or β-actin (Bottom Panel). PCR reaction products were electrophoresed on agarose gels and were visualized after ethidium bromide staining under UV light. FIG. 5B. LNCaP cells cultured in normal medium (Control) were compared to LNCaP cells grown in androgen-free medium for 7 days without or with transfection with siRNA 181 against PCDH-PC or siRNA against lamin for expression of luciferase from the TCF-sensitive reporter pTOP for normalized luciferase activity. FIG. 5C. […]
Expression Vectors, Transfection Protocols and Luciferase/β-Glactosidase Assays. […] Luciferase activity in cell extracts was measured using the Luciferase Assay System of Promega, Inc. (Madison, Wis.). β-galactosidase activity was also measured in the same cell extracts using the β-galactosidase Enzyme Assay System of Promega, Inc. All experiments involving luciferase reporter vectors were done in triplicate for each point.
Background: A reporter such as luciferase makes a cellular process visible.

A further series concerns Akt. The series can be described thus: Western blot of phosphorylated Akt / MDM2 in LNCaP cells in androgen-free medium. Conditions: androgen-free medium 5 days then transfected 2 days. From the text:
FIG. 15. Proteins were extracted from untransfected LNCaP cells maintained in androgen free medium for 7 days (CS-FBS Control) or from 7-day androgen-free LNCaP cells that were transfected for 48 hrs with β-catenin siRNA (CS-FBS+beta-Cat siRNA) or dominant negative Tcf (CS-FBS+DN-Tcf) or PCDH-PC siRNA 181 (CS-FBS+PCDH-PC siRNA) or lamin siRNA (CS-FBS+lamin siRNA). Equal aliquots of protein were electrophoresed on a polyacrylamide gel and then blotted onto a PVDF filter to produce a Western blot. The same blot was probed with an antibody against Akt protein (top panel) or against phosphorylated Akt (ser 473) (second panel) or with an antibody against MDM2 protein (third panel) or phosphorylated MDM2 protein (bottom panel). […] The blockade of Akt phosphorylation by PCDH-PC siRNA could be involved in the process through which this molecule induces the death of prostate cancer cells under androgen-free conditions. […]
Preparation of cell extracts and western blots. Cells were harvested and protein extracts prepared, quantified and used to prepare Western blots as previously described (Example 1; Yang et al., 2005). […] Recombinant Wnt-1 protein (HA-tagged) was detected with anti-HA antibody (Clontech Inc., Mountain View, Calif.). Antibody binding to the Western blot was detected as previously described (Yang et al., 2005). […]
(A western blot detects proteins with antibodies after separation by electrophoresis.)

The test system of a further series is PCDH-PC. Briefly: Western blot of myc-tagged PCDH-PC in LNCaP cells co-transfected with pPCDH-PC-myc and siRNA. Conditions: siRNA 100 nM co-transfected with pPCDH-PC-myc, 48 hrs; listed as #181. From the text:
FIGS. 4A-4B. siRNAs against PCDH-PC suppress PCDH-PC expression and NE transdifferentiation of LNCaP cells. FIG. 4A. LNCaP cells were transfected with the pPCDH-PC-myc expression vector and were co-transfected with siRNA against human lamin or siRNAs 181, 190 or 208 designed to suppress PCDH-PC expression. A Western blot made against protein extracts from these cells were probed with anti-myc (Top Panel) to identify expression of the 110 kd PCDH myc-tagged protein, anti-β-actin (Middle Panel) or anti-human E-cadherin (Bottom Panel). FIG. 4B. A repeated experiment that includes control LNCaP cells (no transfection) or pCMV-PCDH-myc transfected LNCaP cells co-transfected with siRNAs against lamin or against PCDH-PC (181, 190 or 208). The Western blot was probed for NSE expression (Top Panel) or for β-actin expression (Bottom Panel).
Expression Vectors, Transfection Protocols and Luciferase/β-Glactosidase Assays. PCDH-PC cDNA was inserted into the mammalian expression vectors pcDNA3 (Invitrogen Life Technologies, Inc., Carlsbad, Calif.) or into pCMV-myc (BD Biosciences, Clontech, Inc., Palo Alto, Calif.) so that the PCDH-PC product generated from this vector (pPCDH-PC-myc) has a C-terminal myc tag. An expression vector containing cDNA encoding a mutated (stabilized) form of human β-catenin (Tetsu and McCormick, 1999) was used. A dominant-negative Tcf expression vector used was previously described (Chen et al., 2001). The Tcf-sensitive reporter vector, pTOP and a CMV-promoted β-galactosidase expression vector were obtained from Upstate Biotechnology, Inc. Transfections used for protein or RNA extractions were done in 35 cm^2 dishes with cells plated at 50% density 12-16 hrs prior. […] Luciferase activity in cell extracts was measured using the Luciferase Assay System of Promega, Inc. (Madison, Wis.). β-galactosidase activity was also measured in the same cell extracts using the β-galactosidase Enzyme Assay System of Promega, Inc. All experiments involving luciferase reporter vectors were done in triplicate for each point. […]

In the case of “siRNA #181: 21 bp siRNA targeting PCDH-PC mRNA position 3043-3062, 19 bp core with UU overhangs (SEQ ID NO:4) (AAGCATTGAAGCACCAGTGAC; listed as DNA, further chemistry not given here)”, the “selectivity of cell death induction, androgen-free versus normal medium” value in the series on LNCaP cells (LNCaP) was “specific to cells grown in androgen free medium, not in normal medium”. For the same substance, the figures for the “dead cells (sub-G0 peak)” value with LNCaP cells (listed as #181), in the series with LNCaP cells (listed as PCDH-PC siRNA) and with LNCaP cells (listed as siRNA against PCDH-PC) were “approximately 58%”, 58% and 58%, respectively. In addition, the “cell death relative to untransfected cells or cells transfected with lamin siRNA” value in the series on LNCaP cells (LNCaP, androgen-free medium 7 days) is reported as “greater than 4 ×”. Besides, the “induced luciferase expression from pTOP reporter (wnt signaling)” value in series [1] is “completely suppressed”. In the series with Akt, the “Akt phosphorylation (pAkt; and MDM2 phosphorylation)” value is given as “reduced”. In the series on PCDH-PC, the “expression of myc-tagged PCDH-PC polypeptide” value is listed as “suppressive effects; also recorded: most effective”.

Source of the values: patent publication US20090311716A1, “METHODS TO TREAT OR PREVENT HORMONE-RESISTANT PROSTATE CANCER USING siRNA [sequence] FOR PROTOCADHERIN-PC, OR OTHER INHIBITORS OF PROTOCADHERIN-PC EXPRESSION OR ACTIVITY” (THE TRUSTEES OF COLUMBIA UNIVERSITY IN THE CITY OF NEW YORK, priority 2005, published 2009).
